Experimental data published in patent publication US11660311B2, “Cyclic dinucleotides as anticancer agents” (priority 2017, dated 2023).
Where two headings read alike, the source gives them in different places.

Assays:
[1] = test system: IRF pathway in THP1-Dual STING reporter cells; assay: STING THP1 Reporter Assay, IRF pathway (secreted Lucia luciferase); format: cell-based, human; details: 100% = 100 μM cGAMP
From the text: (§1) THP1-Dual™ cells were derived from the human THP-1 monocyte cell line by stable integration of two inducible reporter constructs. To this end, THP1-Dual™ cells allow the simultaneous study of the NF-κB pathway, by monitoring the activity of SEAP, and the IRF pathway by assessing the activity of a secreted luciferase (Lucia). Both reporter proteins are readily measurable in the cell culture supernatant when using QUANTI-Blue™, a SEAP detection reagent, and QUANTI-Luc™, a luciferase detection reagent.
(§2) THP1-Dual™ cells induce the activation of NF-κB in response to STING agonists. They also trigger the IRF pathway upon stimulation with STING agonists, such as cGAMP. Here, the THP-1-Dual cells were used to assess STING binders for function on the cellular level.
(§3) Serial dilutions of compounds in DMSO were added to low volume 384 well plates at 100 nl/well using an ECHO acoustic dispenser (Labcyte, model 550) to achieve final starting concentration of 100 μM in cell suspension. […] One column of the plate was reserved for treatment with cGAMP at 100 μM for 100% activation calculation and one column for no treatment (DMSO only) for baseline activation. Plates were then incubated in 37° C. incubator at 5% CO2 for 20 hours.
(§4) In the SEAP assay, 5 μl of 2× QuantiBlue (Invivogen, cat #Rep-qb2) is added to 384 well black plates seeded with THP1 cells and incubated at 37° C. for 2 hours. Plates were read on the Envision (Perkin Elmer) at 620 nm wavelength (OD620). In the luciferase assay, 5 μl of Quantiluc (Invivogen, Rep-qlc2) is added to white 384 well plates seeded with THP1 cells and read at 5 minutes on the Envision (Perkin Elmer) using a luminescence protocol (RLU). For both cell lines, 100% activation was determined by value (RLU) of THP-1 Dual STING cells stimulated with 100 μM cGAMP (Invivogen, cat #TLRL-NACGA23-5).

[2] = test system: NF-κB pathway in THP1-Dual STING reporter cells; assay: STING THP1 Reporter Assay, NF-κB pathway (SEAP); format: cell-based, human; details: 100% = 100 μM cGAMP
From the text: as §1, §2, §3, §4

[3] = molecular target: T1, STING WT: His-TVMV-S-hSTING(155-341)-H232R (Homo sapiens, UniProt Q86WV6, H232R); assay: STING HTRF Binding Assay, STING WT; details: 20 nM His-tagged STING cytoplasmic domain, 200 nM fluorescein-labeled cGAMP analog probe, one hour; read-out: HTRF Binding Assays IC50 (μM) STING WT
T1 construct: STING WT: His-TVMV-S-hSTING(155-341)-H232R
T1 sequence (Q86WV6 with tags, fused parts or gaps H232R): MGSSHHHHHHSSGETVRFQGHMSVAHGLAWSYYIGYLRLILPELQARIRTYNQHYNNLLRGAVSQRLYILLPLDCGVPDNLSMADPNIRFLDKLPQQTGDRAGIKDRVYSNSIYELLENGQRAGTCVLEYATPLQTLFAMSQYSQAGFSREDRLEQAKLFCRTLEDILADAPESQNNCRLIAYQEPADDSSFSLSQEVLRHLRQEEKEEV
Method: (§5) A time resolved FRET-based competition binding assay was used to assess test article binding to STING WT and STING AQ. His-tagged STING cytoplasmic domain (WT or AQ) at a concentration of 20 nM was incubated with 2.5 nM Tb-labeled anti-His antibody, test compound, and fluorescein-labeled cGAMP analog probe (BioLog cat. no. C195) at a concentration of 200 nM (STING WT) or 40 nM (STING AQ) in PBS containing 0.005% Tween-20 and 0.1% BSA for one hour. Fluorescence at 495 nm and 520 nm was measured using an EnVision microplate reader to quantify FRET between Tb-labeled anti-His antibody and fluorescein-labeled probe. Background was defined as the signal obtained in the absence of STING protein, and background subtracted FRET ratios were normalized to the maximum signal obtained in the absence of test compound. These values were converted to a percent inhibition. Percent inhibition was determined for test compounds at 11 concentrations. The IC50, defined as the concentration of competing test compound needed to reduce specific binding of the probe by 50%, was calculated using the 4 parameter logistic equation to fit the data

[4] = molecular target: T2, STING AQ: His-TVMV-S-hSTING(155-341)-G230A-R293Q (Homo sapiens, UniProt Q86WV6, G230A/H232R/R293Q); assay: STING HTRF Binding Assay, STING AQ; details: 20 nM His-tagged STING cytoplasmic domain, 40 nM fluorescein-labeled cGAMP analog probe, one hour; read-out: HTRF Binding Assays IC50 (μM) STING AQ
T2 construct: STING AQ: His-TVMV-S-hSTING(155-341)-G230A-R293Q
T2 sequence (Q86WV6 with tags, fused parts or gaps G230A/H232R/R293Q): as the sequence (Q86WV6 with tags, fused parts or gaps H232R) above, with G99A, R162Q counted along it
Method: as §5

[5] = read-out: THP1 Reporter Assays EC50 (μM) IRF3, THP1-Dual cells, 10% human plasma, 20 hours, luciferase
[6] = THP1-Dual cells, 10% human plasma, 20 hours, SEAP, read-out: THP1 Reporter Assays EC50 (μM) NFkB
[7] = Homo sapiens, THP1-Dual, 20 h, read-out: THP1 Reporter Assays EC50 (μM) IRF3, THP1-Dual cells, 10% human plasma, 20 hours, luciferase
[8] = Homo sapiens, THP1-Dual, 20 h, read-out: THP1 Reporter Assays EC50 (μM) NFkB, THP1-Dual cells, 10% human plasma, 20 hours, SEAP
[9] = read-out: THP1 Reporter Assays EC50 (μM) NFkB, THP1-Dual cells, 10% human plasma, 20 hours, SEAP

`Nc1ncnc2c1ncn2[C@@H]1O[C@@H]2COP(=O)(S)O[C@H]3[C@@H](F)[C@H](n4cnc5c4ncn4ncnc54)O[C@@H]3COP(=O)(S)O[C@H]2[C@H]1F` (single isomer, unassigned) [Example 12-2] was tested, and the EC50 [1, 5] was 0.2 µM, the EC50 [2, 6] was 2.64 µM and the IC50 [3] was 0.01 µM. For the same molecule, the IC50 [4] was 0.002 µM.
`Nc1ncnc2c1ncn2[C@@H]1O[C@@H]2COP(=O)(S)O[C@H]3[C@@H](F)[C@H](n4cnc5c4ncn4ncnc54)O[C@@H]3COP(=O)(S)O[C@H]2[C@H]1F` (single isomer, unassigned) [Example 12-3] gave an EC50 [1, 5] of 0.27 µM, an EC50 [2, 6] of 2.65 µM and an IC50 [3] of 0.02 µM. For the same molecule, the IC50 [4] was 0.003 µM.
Work on `Nc1ncnc2c1ncn2[C@@H]1O[C@@H]2COP(=O)(S)O[C@H]3[C@@H](F)[C@H](n4cnc5c4ncn4ncnc54)O[C@@H]3COP(=O)(S)O[C@H]2[C@H]1F` (single isomer, unassigned) [Example 12-4] yielded an EC50 [1, 5] of 0.06 µM, an EC50 [2, 6] of 1.09 µM and an IC50 [3] of 0.002 µM. It also gave an IC50 [4] of 0.005 µM.
`Nc1ncnc2c1ncn2[C@@H]1O[C@@H]2COP(=O)(S)O[C@H]3[C@@H](O)[C@H](n4nnc5c([N+](=O)[O-])cccc54)O[C@@H]3COP(=O)(O)O[C@H]2[C@H]1F` (single isomer, unassigned) [Example 13-1] was tested, and the EC50 [1, 7] was over 100 µM, the EC50 [2, 8] was over 100 µM and the IC50 [3] was 8.45 µM. It also gave an IC50 [4] of 1.44 µM.
For `Nc1ncnc2c1ncn2[C@@H]1O[C@@H]2COP(=O)(S)O[C@H]3[C@@H](O)[C@H](n4nnc5c([N+](=O)[O-])cccc54)O[C@@H]3COP(=O)(O)O[C@H]2[C@H]1F` (single isomer, unassigned) [Example 13-2], the EC50 [1, 5] was over 100 µM, the EC50 [2, 9] was over 100 µM and the IC50 [3] was 5.49 µM. The IC50 [4] was 0.45 µM.
`Nc1ncnc2c1ncn2[C@@H]1O[C@@H]2COP(=O)(S)O[C@H]3[C@@H](F)[C@H](n4cnc5c4ncn4ccnc54)O[C@@H]3COP(=O)(S)O[C@H]2[C@H]1F` (single isomer, unassigned) [Example 21-1] gave an EC50 [1, 5] of 28.2 µM, an EC50 [2, 9] of 34.6 µM and an IC50 [3] of 0.32 µM. The IC50 [4] was 0.01 µM.
Molecule `Nc1ncnc2c1ncn2[C@@H]1O[C@@H]2COP(=O)(S)O[C@H]3[C@@H](F)[C@H](n4cnc5c4ncn4ccnc54)O[C@@H]3COP(=O)(S)O[C@H]2[C@H]1F` (single isomer, unassigned) [Example 21-2] has an EC50 [1, 5] of 0.13 µM, an EC50 [2, 9] of 0.56 µM and an IC50 [3] of 0.02 µM. The IC50 [4] was 0.01 µM.
Molecule `Nc1ncnc2c1ncn2[C@@H]1O[C@@H]2COP(=O)(S)O[C@H]3[C@@H](F)[C@H](n4cnc5c4ncn4ccnc54)O[C@@H]3COP(=O)(S)O[C@H]2[C@H]1F` (single isomer, unassigned) [Example 21-3] has an EC50 [1, 5] of 0.14 µM, an EC50 [2, 9] of 0.53 µM and an IC50 [3] of 0.02 µM. The IC50 [4] was 0.01 µM.
Molecule `Nc1ncnc2c1ncn2[C@@H]1O[C@@H]2COP(=O)(S)O[C@H]3[C@@H](F)[C@H](n4cnc5c4ncn4ccnc54)O[C@@H]3COP(=O)(S)O[C@H]2[C@H]1F` (single isomer, unassigned) [Example 21-4] has an EC50 [1, 5] of 0.28 µM, an EC50 [2, 9] of 0.67 µM and an IC50 [3] of 0.01 µM. The IC50 [4] was 0.01 µM.
Molecule `Nc1ncnc2c1ncn2[C@@H]1O[C@@H]2COP(=O)(O)O[C@H]3[C@@H](O)[C@H](n4cnc5c(=O)n6ccnc6[nH]c54)O[C@@H]3COP(=O)(O)O[C@H]2[C@H]1F` [Example 2, (1S,6R,8R,9R,10R,15R,17R,18R)-8-(6-amino-9H-purin-9-yl)-9-fluoro-3,12,18-trihydroxy-17-{9-oxo-3H,4H,9H-imidazo[1,2-a]purin-3-yl}-2,4,7,11,13,16-hexaoxa-3λ^5,12λ^5-diphosphatricyclo[13.3.0.0^6,10]octadecane-3,12-dione] has an EC50 [1, 7] of 2.36 µM, an EC50 [2, 8] of 4.38 µM and an IC50 [3] of 0.04 µM. The IC50 [4] was 0.01 µM.
